Measured values reported in patent US20120190586A1, “Synthetic Receptors for Identification of Protein Posttranslation Modifications” (priority 2009, published 2012).
Several values for one entry are separate records, joined by “and”; a condition that tells them apart may be missing. Identical values can stand only once. Like-named read-outs stand apart in the source and are kept apart here.

What was measured:
H3 K9Me3 R8G = molecular target: T1, H3 K9Me3 R8G (Homo sapiens, UniProt P68431, R9G); assay: Fluorescence anisotropy binding to mutant H3 tail with Gly in place of Arg8; conditions: 27° C., 10 mM phosphate buffer pH 8.5; errors in parentheses
T1 construct: peptide consisting of residues 5-11 of histone 3 (H3 K9Men); made in house; host or cells: solid-phase chemical peptide synthesis
Method: FIG. 11. Fluorescence anisotropy of rac-A2B with H3 KMe3 where Arg8 has been mutated to Gly8 (10 mM sodium phosphate buffer pH 8.5).
(§1) Fluorescence Anisotropy. Binding assays were performed with purified rac- or meso-A2B and fluorescein labeled histone 3 peptides. Assays were prepared in 384-well plates (Corning) with a total volume of 50 μL per well, containing 20 μM labeled peptide and increasing concentrations of A2B in buffer (10 mM phosphate pH 8.5). Plates were spun down and allowed to incubate for at least 30 minutes before analysis. Fluorescence anisotropy was measured on a PHERAstar (BMG Labtech) using FP485, 520A, and 520B filters at 27° C. The anisotropy data was plotted as a function A2B concentration and each plot was fitted in KaleidaGraph to the following equation (Wang, Y.; Killian, J.; Hamasaki, K.; Rando, R. R. Biochemistry 1996, 35, 12338-12346):
(§2) where r is fluorescence anisotropy, ro is the initial anisotropy value, r∞ is the maximum anisotropy value, a is the peptide concentration, x is the concentration of A2B, and kd is the dissociation constant. All measurements were taken in duplicate or triplicate.

Ac-KMe3-G-NH2 = assay: Amplification in biased A2B dynamic combinatorial library (LC-MS); conditions: biased library A:B 2:1, 7.5 mM total; Ac-KMe3-G-NH2 template
Method: Using a biased library in which building blocks A and B were mixed in a 2:1 ratio (7.5 mM total), the selectivity of the receptors for different methylation states of lysine was investigated, using Ac—KMen-G-NH2 as the guests (n=0-3). A diverse library was generated in the absence of a template, with A2 and A2B3 as the dominant species and rac-A2B and meso-A2B constituting only 2.4% and 1.1% of the total library composition respectively.
Dynamic Combinatorial Chemistry. The relevant building blocks were individually dissolved in water, adding sufficient 1.0 M aqueous NaOH to fully deprotonate the thiols and carboxylic acids on the building blocks, using sonication when necessary. The pH of each solution was then adjusted to 8.5 using 1.0 M aqueous HCl and 1.0 M aqueous NaOH. […] The vials were capped and analyzed at various time points.
Analytical LC-MS. […] Mass spectra (ESI+) were acquired in ultrascan mode by using a drying temperature of 350° C., a nebulizer pressure of 45 psi, a drying gas flow of 10 L/min, and a capillary voltage of 3000 V. The reactions were monitored weekly (3 μL injections) until equilibrium was reached after about 3 weeks. […] The peak areas were integrated at 254 nm and the amplification factors were calculated (A.F.=% area of A2B in templated DCL/% area of A2B in untemplated DCL).

[1] = molecular target: T2, H3 K9Me (FAM-QTAR-KMe-STG-NH2) (Homo sapiens, UniProt P68431); assay: Fluorescence anisotropy binding of A2B receptors to FAM-labeled histone 3 peptide; conditions: 27° C., 10 mM phosphate buffer pH 8.5; errors in parentheses
T2 construct: peptide consisting of residues 5-11 of histone 3 (H3 K9Men); made in house; host or cells: solid-phase chemical peptide synthesis
Method: (§3) Fluorescence anisotropy was used to measure the dissociation constant of rac- and meso-A2B to a peptide consisting of residues 5-11 of histone 3 (H3 K9Men), with each of the methylation states at Lys 9 as well as an N-terminal carboxyfluorescein (FAM) for fluorescence detection. Binding affinities for H3 K9Me3 were also confirmed by ITC (see below).
(§4) H3 K9Men: FAM-QTAR-KMen-STG-NH2, n=0-3
as §1, §2

[2] = molecular target: T3, H3 K9Me2 (FAM-QTAR-KMe2-STG-NH2) (Homo sapiens, UniProt P68431); assay: as above; conditions: 27° C., 10 mM phosphate buffer pH 8.5; errors in parentheses
T3 construct: peptide consisting of residues 5-11 of histone 3 (H3 K9Men); made in house; host or cells: solid-phase chemical peptide synthesis
Method: as §3, §4, §1, §2

[3] = molecular target: T4, H3 K9 (unmethylated, FAM-QTAR-K-STG-NH2) (Homo sapiens, UniProt P68431); assay: as above
T4 construct: peptide consisting of residues 5-11 of histone 3 (H3 K9Men); made in house; host or cells: solid-phase chemical peptide synthesis
Method: as §3, §4, §1, §2

[4] = molecular target: T5, H3 K9Me3 (FAM-QTAR-KMe3-STG-NH2) (Homo sapiens, UniProt P68431); assay: as above; conditions: for Kd: 27° C., 10 mM phosphate buffer pH 8.5, errors in parentheses; for Affinity for H3 K9Me3 peptide (in words): fluorescence anisotropy
T5 construct: peptide consisting of residues 5-11 of histone 3 (H3 K9Men); made in house; host or cells: solid-phase chemical peptide synthesis
Method: as §3, §4, §1, §2

[5] = molecular target: T6, H3 tail, Lys9 mutated to Gly (Homo sapiens, UniProt P68431, K10G); assay: Binding to H3 tail with Lys9 mutated to Gly
T6 construct: A mutant H3 tail with Gly in place of Arg8; made in house; host or cells: solid-phase chemical peptide synthesis

[6] = molecular target: T7, WGGG-GKMe3 (Histone 3 peptide, Gly8) (Homo sapiens, UniProt P68431, R9G); assay: Isothermal titration calorimetry, peptide titrated into A2B; format: binding
T7 construct: made in house; host or cells: solid-phase chemical peptide synthesis
Method: FIG. 12. Histone 3 peptide (WGGG-GKMe3) used as the titrant in ITC experiments to confirm A2B binding to KMe3.
Isothermal Titration calorimetry. Isothermal titration calorimetry measurements were conducted using an ITC200 from MicroCal, LLC to verify the binding data obtained by fluorescence anisotropy. A single 0.2 μL aliquot followed by 38 aliquots of 1 μL were titrated into the calorimetric cell every 2.5 minutes. The titrant used to determine the binding to KMe3 was a 2.0 mM solution of the H3 tail peptide in FIG. 12 (in 10 mM phosphate buffer, pH 8.5), containing a Trp for concentration determination and separated from the natural sequence by 3 glycine spacers. This peptide also contained Gly8 as opposed to Arg8 which is found in the native sequence. It has been shown that this mutation has minimal affect on the overall binding affinity. The cell was filled with a 0.2 mM solution of either rac- or meso-A2B (in 10 mM phosphate buffer, pH 8.5). All measurements were carried out at 26° C.

[7] = 26° C., 10 mM phosphate buffer pH 8.5, read-out: Kd by ITC, binding to KMe3

| SMILES | Kd (H3 K9Me3 R8G) [µM] | Amplification in templated DCL, KMe3 guest (Ac-KMe3-G-NH2) | Kd [1] [µM] | Kd [2] [µM] | Kd ([3]; 27° C., 10 mM phosphate buffer pH 8.5) [µM] | Binding to the unmethylated histone tail (in words) ([3]; fluorescence anisotropy) | Kd [4] [µM] | Affinity for H3 K9Me3 peptide (in words) [4] | Binding to H3 tail with Lys9 mutated to Gly (in words) [5] | Kd [6, 7] | Kd ([6]; titration of WGGG-GKMe3 into receptor, read-out: Kd by ITC, binding to KMe3 (unit inferred)) [µM] |
| --- | --- | --- | --- | --- | --- | --- | --- | --- | --- | --- | --- |
| O=C(O)C1=C(C(=O)O)C2c3ccc4cc3C1c1ccc(cc12)SSc1ccc2c(c1)C1C(C(=O)O)=C(C(=O)O)C2c2cc(ccc21)SSc1cc(cc(C(=O)O)c1)SS4 (racemic) [rac-A2B] | 34 | approximately 10 fold | 166 | 58 | > 1200 | no appreciable binding | 25 | low micromolar affinity | total loss of binding | 20 µM |  |
| O=C(O)C1=C(C(=O)O)[C@@H]2c3ccc4cc3[C@H]1c1ccc(cc12)SSc1ccc2c(c1)[C@H]1C(C(=O)O)=C(C(=O)O)[C@@H]2c2cc(ccc21)SSc1cc(cc(C(=O)O)c1)SS4 [meso-A2B] |  | approximately 10 fold |  | 73 |  |  | 28 | low micromolar affinity |  | 12.8 µM and 13 µM | 12.8 |
